{"source": "patent EP0414895A1", "about": "“OROTATE OF $g(a)-AMINO-$g(b)-PHENYL-BUTYRIC ACID” (NAUCHNO-PROIZVODSTVENNOE OBIEDINENIE \"BIOLAR\", priority 1989, dated 1990)", "key": {"[1]": {"tested_on": "Mäuse", "experiment": "Motor and orientation activity in photoelectric actometer", "assay_type": "in vivo", "conditions": "counted 60 min from 10 min after dosing", "description": "Zur Bestimmung der sedativen Wirksamkeit wurde die motorische und Orientierungsaktivität und die motorische Fähigkeit in Versuchen an Mäusen und Ratten untersucht.\nDen Versuchstieren wurden die beanspruchte Verbindung, γ -Amino- β -phenylbuttersäurehydrochlorid und Pyrazetam eingeführt. Als Kontrolle diente die physiologische Lösung (0,9%ige NaCl-Lösung). Die Untersuchungen wurden an I0 bis I2 erwachsenen Tieren (Mäuse, Ratten) durchgeführt.\nBei der Bestimmung der motorischen und Orientierungsaktivität wurde jede Maus in einer Einzelkamner des photoelektrischen Aktometers untergebracht. Die motorische und Orientierungsaktivität wurde nach der Zahl der Impulse bestimmt, die beim Berühren der Aktometerkontakte durch das Tier entstanden. Das Zählen der Im pulse wurde I0 min nach der intraperitonealen Einführung der genannten Verbindungen begonnen und dauerte innerhalb von 60 min. Die Angaben sind in der Tabelle I angeführt."}, "[2]": {"tested_on": "Ratten", "experiment": "Swimming test at 2°C, rats", "assay_type": "in vivo", "description": "(§1) Der Einfluss der beanspruchten Verbindung auf die physische Toleranz der Tiere wurde nach dem Schwimmtest der Mäuse und Ratten untersucht. Die Versuche wurden in einer Wanne von […] Fläche durchgeführt. Die Tiergruppe (8 bis I0 Mäuse oder Ratten) wurde ins Wasser gebracht und es wurde die Zeit der Schwimmfähigkeit bestimmt. Die neue Verbindung und γ -Amino- β - -phenylbuttersäurehydrochlorid wurden enteral und intraperitoneal I Stunde oder 3 Stunden vor dem Schwimmbeginn eingeführt. Die Untersuchung wurde sowohl nach der einmaligen als auch nach der chronischen (innerhalb von 20 Tagen einmal täglich) Einführung der genannten Verbindungen durchgeführt. Die Versuche wurden bei 3 Temperaturen angestellt: 2°C (Tabelle I7), 25°C (Tabelle I8) und 40°C (Tabelle I9)."}, "[3]": {"tested_on": "Mäuse", "experiment": "Natriumäthaminal intoxication, sleep duration, mice", "assay_type": "in vivo", "description": "Ausserdem wurde die Wirkung der beanspruchten Verbindung auf die durch Natriumäthaminal erzeugte Intoxikation untersucht. Die Versuche wurden an männlichen Mäusen und Ratten in Gruppen zu 8 bis I0 Tieren angestellt. Natriumäthaminal wurde intraperitoneal in einner Dosis von I00 mg/kg I5 min nach der enteralen Verabreichung der beanspruchten Verbindung oder der Kontrollarzneimittel eingeführt. Es wurde die einmalige und chronische Einwirkung (während I2 bis I4 Tage einmal täglich) von der neuen Verbindung, γ -Amino- β - -phenylbuttersäurehydrochlorid und Pyrazetam untersucht. Es wurde die Dauer der Seitenlage - des Schlafs der Tiere bestimmt. Die Ergebnisse dieser Untersuchung sind in Tabelle 23 (für Mäuse) und 24 (für Ratten) angeführt."}, "[4]": {"tested_on": "Mäuse", "experiment": "Phenamin-induced hypermotility in actometer", "assay_type": "in vivo", "description": "Eis wurde die Wirkung der beanspruchten Verbindung auf den durch Phenamin ausgelöston Effekt der Veränderung der Hypermotorik untersucht. Phenamin wurde den Mäusen intraperitoneal in Dosen von 3 und 5 mg/kg I0 Minuten nach der enteralen oder intraperitonealen Einführung der beanspruchten Verbindung und des Pyrazetams eingeführt. Die Tiere wurden in der Kammer des photoelektrischen Aktometers untergebracht. Die motorische Aktivität wurde nach der Zahl der Impulse innerhalb von 60 Minuten bestimmt. Die Angaben sind in der Tabelle 6 angeführt."}, "[5]": {"tested_on": "Mäuse", "experiment": "Hypoxia in barochamber (11000 m), survival", "assay_type": "in vivo", "description": "Nach einer der Methoden wurden die Mäuse in der Barokammer untergebracht, die für die Höhe von II000 m über dem Meeresspiegel gehoben wurde. Die Hebung wurde mit einer Geschwindigkeit von 50 m/s verwirklicht. Der atmosphärische Tiefdruck wurde mit Hilfe der elektrischen Vakuumpumpe geschaffen.\nDie beanspruchte Verbindung, Natriumoxybutyrat und Pyrazetam wurden 60 min vor dem Versuch enteral eingeführt. Der Schutzeffekt wurde nach der Überlebensdauer eingeschätzt. Die Angaben sind in Tabelle I0 angeführt."}, "[6]": {"tested_on": "Mäuse", "experiment": "Hypoxia in hermetically closed vessel, survival", "assay_type": "in vivo", "conditions": "closed vessel 80 cm³", "description": "Nach der zweiten Methode wurden die Mäuse in einem hermetisch verschlossenen Gefäss von 80 cm³ Inhalt untergebracht, dabei wurde die Luft nicht abgesaugt, und es wurden keine CO₂-Sorptionsmittel zugegeben. Die Prüfverbindungen wurden I Stunde vor dem Beginn des Versuchs intraperitoneal eingeführt (siehe Tabelle II)."}, "[7]": {"tested_on": "Mäuse", "experiment": "Hemic hypoxia by intraperitoneal Natriumnitrit, survival", "assay_type": "in vivo", "conditions": "Natriumnitrit 200 mg/kg i.p. 15 min after compound", "description": "Die gemische Hypoxie wurde durch die intraperitoneale und subkutane Verabreichung von Natriumnitrit in einer Dosis von 200 mg/kg den Gruppen zu I0 […] I5 min nach der Einführung der Prüfverbindungen erzeugt. Die Angaben sind in der Tabelle I2 (bei der intraperitonealen Einführung von Natriumnitrit) und Tabelle I3 (bei der subkutanen Einführung von Natriumnitrit) angeführt."}, "[8]": {"tested_on": "Ratten", "experiment": "Swimming test at 25°C", "assay_type": "in vivo", "conditions": "50,0 mg/kg", "description": "as §1"}, "[9]": {"tested_on": "Mäuse", "experiment": "Strophantin toxicity (arrhythmia), time to death", "assay_type": "in vivo", "description": "Unter Berücksichtigung der Tatsache, dass einige Verbindungen, die ähnlich mit der erfindungsgemässen Verbindung eine sedative Wirkung besitzen, als symptomatische Mittel zur Behandlung von verschiedenen Arrhythmienarten angewendet werden können, wurde der Einfluss der erfindungsgemässen Verbindung auf die toxischen Strophantin-Effekte geprüft, die mit der Herzrhythmusstörung verbunden sind. Dazu wurde bei weissen Mäusen (die Gruppe aus I0 Tieren) die Zeit des Todeseintritts bei der intravenösen Einführung von Strophantin (0,0I%ige wässrige Lösung) im einzelnen und in Kombination mit der neuen Verbindung und mit γ -Amino--β -phenylbuttersäurehydrochlorid bestimmt. Die Ergebnisse dieser Versuche sind in der Tabelle 25 angeführt."}, "[10]": {"tested_on": "Ratten", "experiment": "Acute toxicity, rats", "assay_type": "in vivo", "conditions": "intraperitoneal", "description": "Die akute Toxizität der beanspruchten Verbindung wurde an Mäusen und Ratten (die Gruppe aus 9 bis I2 Tieren) bei der intravenösen, intraperitonealen Einführung der beanspruchten Verbindung sowie bei deren Einführung in den Magen bestimmt.\nEs wurden der letale Ausgang, der Allgemeinzustand, die Vergiftungssymptome registriert. LD₅₀ wurde nach der Methode von Lichtfield und Wilcoxon bestimmt. LD₅₀ der neuen Verbindung beträgt für Mäuse bei der intravenösen Einführung 580 mg/kg, bei der intraperitonealen Einführung I450 mg/kg, bei der Einführung in den Magen 4600 mg/kg; für Ratten bei der intraperitonealen Einführung beträgt LD₅₀ 883 mg/kg, bei der Einführung in den Magen - über I500 mg/kg."}, "[11]": {"experiment": "Storage stability (description of the substance)", "assay_type": "physicochemical"}}, "note": "Structures can show the parent of a compound that is named as a salt.", "data": [{"compound": "NCC(CC(=O)O)c1ccccc1", "note": "(stereo not drawn) [γ-Amino-β-phenylbutter-säurehydrochlorid, γ -Amino- β -phenylbuttersäurehydrochlorid, reference compound]", "values": [{"measurement": "Anzahl der Impulse im Aktometer", "setting": "[1]; 16 mg/kg i.p.", "result": "368±51"}, {"measurement": "Anzahl der Impulse im Aktometer", "setting": "[1]; 32 mg/kg i.p.", "result": "238±28"}, {"measurement": "Anzahl der Impulse im Aktometer", "setting": "[1]; 40 mg/kg i.p.", "result": "158±21"}, {"measurement": "Schwimmzeit, Ratten", "setting": "[2]; 35 mg/kg chronic, 20 days", "result": "328,8±34"}, {"measurement": "Schwimmzeit, Ratten", "setting": "[2]; 35 mg/kg single", "result": "304,3±29"}, {"measurement": "Schlafdauer", "setting": "[3]; 35 mg/kg chronic, 12 days + Natriumäthaminal 100 mg/kg i.p.", "result": "390,0±37 min"}, {"measurement": "Schlafdauer", "setting": "[3]; 35 mg/kg single + Natriumäthaminal 100 mg/kg i.p.", "result": "274,3±32 min"}]}, {"compound": "γ -Amino- β -phenylbuttersäureorotat [Erfindungsgemässe Verbindung]", "values": [{"measurement": "Anzahl der Impulse im Aktometer", "setting": "[1]; 25 mg/kg i.p.", "result": "322±43"}, {"measurement": "Anzahl der Impulse im Aktometer", "setting": "[1]; 50 mg/kg i.p.", "result": "208±27"}, {"measurement": "Anzahl der Impulse im Aktometer", "setting": "[1]; 75 mg/kg i.p.", "result": "123±18"}, {"measurement": "Anzahl der Impulse im Aktometer innerhalb von 60 min", "setting": "[4]; 50 mg/kg + Phenamin 5 mg/kg i.p. 10 min later", "result": "1884±111"}, {"measurement": "Anzahl der Impulse im Aktometer innerhalb von 60 min", "setting": "[4]; 75 mg/kg + Phenamin 5 mg/kg i.p. 10 min later", "result": "1125±141"}, {"measurement": "Anzahl der Impulse im Aktometer innerhalb von 60 min", "setting": "[4]; 100 mg/kg + Phenamin 5 mg/kg i.p. 10 min later", "result": "812±62"}, {"measurement": "Anzahl der Impulse im Aktometer innerhalb von 60 min", "setting": "[4]; 150 mg/kg + Phenamin 5 mg/kg i.p. 10 min later", "result": "811±98"}, {"measurement": "Überlebensdauer", "setting": "[5]; 50,0 mg/kg enteral 60 min before", "result": "6,2±1,4 min"}, {"measurement": "Überlebensdauer", "setting": "[5]; 100,0 mg/kg enteral 60 min before", "result": "7,5±2,1 min"}, {"measurement": "Überlebensdauer", "setting": "[5]; 200,0 mg/kg enteral 60 min before", "result": "15,2±1,8 min"}, {"measurement": "Überlebensdauer", "setting": "[6]; 50,0 mg/kg i.p. 1 h before", "result": "10,8±1,2 min"}, {"measurement": "Überlebensdauer", "setting": "[6]; 100,0 mg/kg i.p. 1 h before", "result": "15,2±1,4 min"}, {"measurement": "Überlebensdauer", "setting": "[6]; 200,0 mg/kg i.p. 1 h before", "result": "27,6±2,6 min"}, {"measurement": "Überlebensdauer", "setting": "[7]; 50,0 mg/kg", "result": "33,8±1,2 min"}, {"measurement": "Überlebensdauer", "setting": "[7]; 100,0 mg/kg", "result": "53,1±4,1 min"}, {"measurement": "Überlebensdauer", "setting": "[7]; 200,0 mg/kg", "result": "46,8±2,7 min"}, {"measurement": "Schwimmzeit, Ratten", "setting": "[2]; 30 mg/kg chronic, 20 days", "result": "390,0±56"}, {"measurement": "Schwimmzeit, Ratten", "setting": "[8]", "result": "8,2±0,5"}, {"measurement": "Schlafdauer", "setting": "[3]; 50 mg/kg chronic, 12 days + Natriumäthaminal 100 mg/kg i.p.", "result": "178,4±14 min"}, {"measurement": "Schlafdauer", "setting": "[3]; 50 mg/kg single + Natriumäthaminal 100 mg/kg i.p.", "result": "261,3±21 min"}, {"measurement": "Zeit des Todeseintritts", "setting": "[9]; 50 mg/kg + Strophantin 1,7 mg/kg i.v.", "result": "22,3 (8,9 - 35,6) min"}, {"measurement": "Verlängerung der Zeit des Todeseintritts der Tiere", "setting": "[9]; 50 mg/kg, Strophantin", "result": "2,5 fache"}, {"measurement": "LD₅₀", "setting": "[10]", "result": 883, "unit": "mg/kg"}, {"measurement": "Beständigkeit bei der Aufbewahrung", "setting": "[11]", "result": "beständig"}]}]}
